Test results from US20240415123A1, “METHODS AND COMPOSITIONS FOR ICAFOLIN HERBICIDE TOLERANCE” (Monsanto Technology LLC, priority 2023, published 2024).

Legend:
Format in all cases: in vivo
[1] = test system: transgenic soybean plants expressing CYP28; test: Icafolin herbicide injury rating, greenhouse spray, CYP28 soybean; conditions: Table 8
Text: The codon-optimized genes were placed into plant transformation cassettes with each CYP coding sequence operably linked to a constitutive expression element comprising the promoter, leader, and intron of Arabidopsis thaliana Ubiquitin 3 (SEQ ID NO:14) and a Medicago truncatula photosystem II terminator (SEQ ID NO:15). Two plant transformation vectors were created, each comprising one of the CYP gene cassettes and an aadA selectable marker expression cassette, conferring resistance to the antibiotics spectinomycin and streptomycin. Soybean cultivar AG3555 seed-derived embryo explants were transformed with the vectors described above by Agrobacterium-mediated transformation using known methods in the art, and positive-transformed plantlets were selected based on growth in the presence of spectinomycin. Plantlets comprising single copy events were grown in the greenhouse to produce R1 seeds. R1 plants were subsequently selected for the homozygous CYP positive plants, either by molecular analysis of young leaf tissue or by seed chipping prior to planting. These selected plants were then screened for tolerance to the icafolin herbicide.
(§1) Herbicide tolerance screening was performed by selecting R1 plants at roughly the V2-V3 developmental stage and applying the icafolin herbicide in a track sprayer under standard greenhouse conditions. Two independent transgenic events per transgene were selected for screening. The herbicide was formulated with 1% v/v methylated seed oil (MSO) and 2.5% v/v ammonium sulfate (AMS) and sprayed with a XR nozzle at 15 gallons per […] (GPA) to mimic field conditions. The icafolin formulation was sprayed at two rates: 5 g active ingredient (ai)/hectare (ha) and 25 g ai/ha. The treated soybean plants were returned to the greenhouse following spray application and allowed to grow under standard conditions. The plants were rated for herbicide injury at approximately 14 and 21 days after treatment (DAT). Untreated transgenic plants and control (wild-type) plants were used for phenotypic comparison. The herbicide injury rating accounts for plant malformation, stunting, chlorosis, necrosis, and plant death relative to the untreated control plants. An injury rating of approximately 90% or above indicates nearly complete plant death. An injury rating of less than 30% indicates partial tolerance and an injury rating of less than 20% indicates good tolerance. Injury ratings were collected and analyzed, and photographs of representative plants were taken.

[2] = test system: Soy transgenic plants expressing CYP14; test: Field trial icafolin injury rating, CYP14 soybean; conditions: for Percent Plant Injury (21 DAT): averaged across repetitions, field locations and events
Procedure: Soy transgenic plants expressing CYP14 or CYP15 were assayed in small scale field trails across nine sites in the United States for tolerance to icafolin spray applications. The plants were grown in field plots and sprayed during the early vegetative stages when plants were roughly at the V3 stage. The icafolin formulation was sprayed at either a 5 g ai/ha or 25 g ai/ha application rate with 2 treatment replications per location. The plants were rated for herbicide injury at 7, 14, 21, and 28 days after treatment (DAT). A total of 12 events for CYP14 and 11 events for CYP15 were tested. An event transformed with a non-herbicide tolerance construct served as a negative control to provide a comparison for injury.

[3] = test system: control (wild-type) soybean plants; test: Icafolin herbicide injury rating, greenhouse spray, control soybean; conditions: for Percent Injury 13 DAT / Percent Injury 14 DAT / Percent Injury 15 DAT / Percent injury 21 DAT: Control
Procedure: Herbicide tolerance screens were performed by selecting R1 plants at roughly the V2-V3 developmental stage and applying icafolin herbicide with a track sprayer under standard greenhouse conditions. Two independent transgenic events per transgene were screened. The herbicide was formulated with 1% v/v methylated seed oil (MSO) and 2.5% v/v ammonium sulfate (AMS) and sprayed with a XR nozzle at 15 gallons per […] (GPA) to mimic field conditions. The icafolin used in this Example and in the experiments described in Examples 2-4 was a mixture of the methyl ester forms of the 2R, 4R and 2S, 4S isomers. The icafolin formulation was sprayed at two rates: 5 g active ingredient (ai)/hectare (ha) and 25 g ai/ha. The herbicide treated soybean plants were returned to the greenhouse following spray application and allowed to grow under standard conditions. Plants were rated for herbicide injury at approximately 14 and 21 days after treatment (DAT). Untreated transgenic plants and control (wild-type) plants were used for phenotypic comparison. The herbicide injury rating accounts for plant malformation, stunting, chlorosis, necrosis, and plant death relative to the untreated control plants. An injury rating of approximately 90% or above indicates nearly complete plant death. An injury rating of less than 30% indicates partial tolerance, and an injury rating of less than 20% indicates good tolerance. Injury ratings were collected and analyzed, and photographs of representative plants were taken.
as §1
as §1, with “13” for “14”, “An injury rating of approximately 90% or above indicates nearly complete plant death. An injury rating of less than 30% indicates partial tolerance and an injury rating of less than 20% indicates good tolerance. Injury ratings were collected and analyzed, and photographs of representative plants were taken.” left out

[4] = CYP28 Event 44, 5 g ai/ha icafolin
[5] = CYP28 Event 44, 25 g ai/ha icafolin
[6] = CYP28 Event 90, 5 g ai/ha icafolin
[7] = CYP28 Event 90, 25 g ai/ha icafolin
[8] = 5 g ai/ha icafolin, Experiment 1
[9] = 25 g ai/ha icafolin, Experiment 1

For `C=C[C@]1(C(=O)N[C@H]2CO[C@@H](C(=O)OC)C2)CC(c2cc(F)cc(F)c2)=NO1` (relative stereo) [icafolin, methyl(2R*,4R*)-4-[[(5S)-3-(3,5-difluorophenyl)-5-vinyl-4H-isoxazole-5-carbonyl]amino]tetrahydrofuran-2-carboxylate], the “Percent Injury 14 DAT” value [1, 4] was 15.6%, the “Percent injury 21 DAT” value [1, 4] was 13.3% and the “Percent Injury 14 DAT” value [1, 5] was 67.2%. For the same compound, the “Percent injury 21 DAT” value [1, 5] was 56.7%, the “Percent Injury 14 DAT” value [1, 6] was 28.0% and the “Percent injury 21 DAT” value [1, 6] was 13.0%. For the same compound, the “Percent Injury 14 DAT” value [1, 7] was 68.0%, the “Percent injury 21 DAT” value [1, 7] was 74.0% and the “Percent Plant Injury (21 DAT)” value ([2]; 5 g ai/ha icafolin) was 11.4%. For the same compound, the “injury ratings” value ([2]; 5 g ai/ha, 21 DAT) was “below 15%”, the Tolerance to icafolin ([2]; 25 g ai/ha) was “Incomplete tolerance” and the “Percent Plant Injury (21 DAT)” value ([2]; 25 g ai/ha icafolin) was 41.1%. For the same compound, the “Percent Injury 13 DAT” value ([3]; 5 g ai/ha icafolin, 13 DAT, Table 10 (Example 4)) was 42.5%, the “Percent Injury 14 DAT” value ([3]; 5 g ai/ha icafolin, 14 DAT, Experiment 2) was 61% and the “Percent Injury 14 DAT” value ([3]; 5 g ai/ha icafolin, 14 DAT, Table 8 (Example 3)) was 45.0%. The “Percent Injury 15 DAT” value [3, 8] was 42%, the “Percent injury 21 DAT” value [3, 8] was 50% and the “Percent injury 21 DAT” value ([3]; 5 g ai/ha icafolin, Experiment 2) was 49%. The “Percent injury 21 DAT” value ([3]; 5 g ai/ha icafolin, Table 8 (Example 3)) was 35.6%, the “Percent injury 21 DAT” value ([3]; 5 g ai/ha icafolin, Table 10 (Example 4)) was 35.0% and the “Percent Injury 13 DAT” value ([3]; 25 g ai/ha icafolin, 13 DAT, Table 10 (Example 4)) was 70.0%. For the same compound, the “Percent Injury 14 DAT” value ([3]; 25 g ai/ha icafolin, 14 DAT, Experiment 2) was 90%, the “Percent Injury 14 DAT” value ([3]; 25 g ai/ha icafolin, 14 DAT, Table 8 (Example 3)) was 78.1% and the “Percent Injury 15 DAT” value [3, 9] was 75%. The “Percent injury 21 DAT” value [3, 9] was 81%, the “Percent injury 21 DAT” value ([3]; 25 g ai/ha icafolin, Experiment 2) was 91% and the “Percent injury 21 DAT” value ([3]; 25 g ai/ha icafolin, Table 8 (Example 3)) was 83.1%. For the same compound, the “Percent injury 21 DAT” value ([3]; 25 g ai/ha icafolin, Table 10 (Example 4)) was 79.4%, the “injury” value ([3]; control, 25 g ai/ha, 13 DAT, Example 4) was “about 70%” and the “injury” value ([3]; control, 25 g ai/ha, 14 DAT, Example 3) was “about 78%”. For the same compound, the “injury” value ([3]; treated control (wild-type), 5 g ai/ha, Example 1) was “around 50%”, the Injury in words ([3]; treated control (wild-type), 5 g ai/ha, Experiment 1) was “heavily injured” and the Injury in words ([3]; treated control (wild-type), 25 g ai/ha, Experiment 1) was “nearly completely killed”. The “injury” value ([3]; treated control, 5 g ai/ha, 13 DAT, Example 4) was “around 42%”, the “injury” value ([3]; treated control, 5 g ai/ha, 14 DAT, Example 3) was “around 45%” and the “injury” value ([3]; treated controls, 25 g ai/ha, Example 1) was “around 90%”.
